Where two headings read alike, the source gives them in different places.

Common to all, as to assay type: in vivo
Assay [1] concerns Eiysiphe graminis f. sp. tritici. In words: Test A: wheat powdery mildew, preventive spray on wheat seedlings. As to conditions: for Test A disease control rating: wheat powdery mildew; for Test A disease control rating (100 = 100% disease control, 0 = no disease control): wheat seedlings sprayed to run-off, inoculated the following day, rating relative to controls, unmarked compounds (standard test rate). The essentials: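 Preventive test: seedlings inoculated with powdery mildew spores one day after run-off spraying of a suspension. Ratings after 7 days in a 20° C growth chamber express percent disease control versus controls.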

For the next assay, the system named is Puccinia recondita. In words: Test B: wheat leaf rust, preventive spray on wheat seedlings. To be noted: for Test B disease control rating: wheat leaf rust; for Test B disease control rating (100 = 100% disease control, 0 = no disease control): wheat seedlings sprayed to run-off, inoculated the following day, rating relative to controls, unmarked compounds (standard test rate). The essentials: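 Preventive test: P. recondita spores were applied one day after a run-off spray of compound suspension on wheat seedlings. Plants had 24 h at 20 °C in saturated air plus 6 days in a 20 °C growth chamber. Scoring is % disease control (100 = full) relative to controls.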

The test system of the next assay is Pyricularia oryzae. To be noted: for Test C disease control rating: rice blast; for Test C disease control rating (100 = 100% disease control, 0 = no disease control): rice seedlings sprayed to run-off, inoculated the following day, rating relative to controls, unmarked compounds (standard test rate).
The next assay has as its system Phytophthora infestans. To be noted: for Test D disease control rating: tomato late blight; for Test D disease control rating (100 = 100% disease control, 0 = no disease control): tomato seedlings sprayed to run-off, inoculated the following day, rating relative to controls, unmarked compounds (standard test rate).
The subject of another assay is Botrytis cinerea. In words: Test E: gray mold, preventive spray on cucumber seedlings. As to conditions: for Test E disease control rating: gray mold on cucumber; for Test E disease control rating (100 = 100% disease control, 0 = no disease control): cucumber seedlings sprayed to run-off, inoculated the following day, rating relative to controls, unmarked compounds (standard test rate). Summed up: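 Preventive spray on cucumber seedlings used a suspension (3% acetone, 250 ppm Trem 014), applied to run-off one day before inoculation with Botrytis cinerea spores. Plants were held 48 h at 20° C in saturated air, then 5 days at 20° C. Percent disease control was scored relative to untreated plants.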

Setting [2] is: 100 = 100% disease control, 0 = no control relative to controls, unmarked entries (standard test concentration).
[3] abbreviates: 100 = 100% disease control, 0 = no control, unmarked entries (standard test concentration).

Turning to `CC(COc1ccccc1I)NC(=O)C(C#N)C(C)(C)C` (mixture of isomers) [11b], the “Test A disease control rating” value in assay [1] (setting [2]) is listed as 77%. Moreover, the “Test B disease control rating” value in the assay with Puccinia recondita (setting [3]) is 85%. Besides, the “Test C disease control rating” value in the assay on Pyricularia oryzae (setting [3]) is given as 99%. In addition, the “Test D disease control rating” value in the assay with Phytophthora infestans (setting [3]) was determined as 23%. In the assay on Botrytis cinerea (setting [3]), the “Test E disease control rating” value is reported as 0%.

As for `CCC1(C(=O)NC(C)COc2c(F)ccc(F)c2F)C(C)C1(Cl)Cl` (centres unmarked) [compound 233], the “Test A disease control rating (100 = 100% disease control, 0 = no disease control)” value in assay [1] was found to be 62%. The “Test B disease control rating (100 = 100% disease control, 0 = no disease control)” value in the assay with Puccinia recondita was 0%. Further, in the assay with Pyricularia oryzae, the “Test C disease control rating (100 = 100% disease control, 0 = no disease control)” value is listed as 94%. Moreover, the “Test D disease control rating (100 = 100% disease control, 0 = no disease control)” value in the assay with Phytophthora infestans was found to be 9%. Further, in the assay with Botrytis cinerea, the “Test E disease control rating (100 = 100% disease control, 0 = no disease control)” value was found to be 6%.

`CC(COc1ccccc1C(F)(F)F)NC(=O)C(C#N)C(C)(C)C` (mixture of isomers) [17b]: in assay [1] (setting [2]), the “Test A disease control rating” value turned out to be 38%. Besides, the “Test B disease control rating” value with Puccinia recondita (setting [3]) is given as 28%. Further, in the assay with Pyricularia oryzae (setting [3]), the “Test C disease control rating” value is given as 100%. In addition, the “Test D disease control rating” value with Phytophthora infestans (setting [3]) came out at 0%. In addition, the “Test E disease control rating” value in the assay on Botrytis cinerea (setting [3]) came out at 0%.

As for `CCC1(C(=O)NC(C)COc2ccc(C)cc2Cl)C(C)C1(Cl)Cl` (centres unmarked) [compound 126], the “Test A disease control rating” value in assay [1] (tested at 40 ppm) is 0%. The “Test B disease control rating” value in the assay on Puccinia recondita (tested at 40 ppm) amounted to 0%. Besides, the “Test C disease control rating” value with Pyricularia oryzae (tested at 40 ppm) amounted to 73%. The “Test D disease control rating” value with Phytophthora infestans (tested at 40 ppm) was determined as 0%. Moreover, the “Test E disease control rating” value in the assay on Botrytis cinerea (tested at 40 ppm) came out at 0%.

Consider `Cc1cccc(OCC(C)NC(=O)C(C#N)C(C)(C)C)c1` (mixture of isomers) [compound 176], for which, in assay [1] (setting [2]), the “Test A disease control rating” value came out at 77%. In addition, the “Test B disease control rating” value in the assay on Puccinia recondita (setting [3]) came out at 0%. Also, the “Test C disease control rating” value in the assay on Pyricularia oryzae (setting [3]) is on record as 94%. In addition, the “Test D disease control rating” value with Phytophthora infestans (setting [3]) turned out to be 56%. Moreover, the “Test E disease control rating” value in the assay on Botrytis cinerea (setting [3]) was found to be 6%.

On to `C[C@H](COc1c(F)cc(F)cc1F)NC(=O)C(C#N)C(C)(C)C` (single isomer, unassigned) [189a], for which the “Test A disease control rating” value in assay [1] (setting [2]) was 0%. The “Test B disease control rating” value with Puccinia recondita (setting [3]) was 0%. Besides, in the assay on Pyricularia oryzae (setting [3]), the “Test C disease control rating” value is listed as 97%. In addition, in the assay with Phytophthora infestans (setting [3]), the “Test D disease control rating” value is 0%. Also, in the assay with Botrytis cinerea (setting [3]), the “Test E disease control rating” value came to 6%.

`C[C@H](COc1cc(F)c(Cl)cc1F)NC(=O)C(C#N)C(C)(C)C` (single isomer, unassigned) [173b]: in assay [1] (setting [2]), the “Test A disease control rating” value is 0%. Further, in the assay on Puccinia recondita (setting [3]), the “Test B disease control rating” value came to 0%. Besides, in the assay on Pyricularia oryzae (setting [3]), the “Test C disease control rating” value is 90%. In addition, the “Test D disease control rating” value with Phytophthora infestans (setting [3]) was 91%. Also, the “Test E disease control rating” value in the assay with Botrytis cinerea (setting [3]) was 0%.

For `Cc1c(Br)cc(C#N)n1OCC(C)NC(=O)C(C#N)C(C)(C)C` (mixture of isomers) [compound 50], in assay [1] (setting [2]), the “Test A disease control rating” value came out at 86%. Besides, the “Test B disease control rating” value in the assay with Puccinia recondita (setting [3]) is 28%. In addition, the “Test C disease control rating” value in the assay on Pyricularia oryzae (setting [3]) worked out at 53%. Besides, the “Test D disease control rating” value in the assay on Phytophthora infestans (setting [3]) is listed as 57%. Further, in the assay with Botrytis cinerea (setting [3]), the “Test E disease control rating” value came out at 0%.

Turning to `CCc1cccc(OCC(C)NC(=O)C(C#N)C(C)(C)C)c1` (mixture of isomers) [compound 177], in assay [1] (setting [2]), the “Test A disease control rating” value is reported as 62%. Besides, in the assay with Puccinia recondita (setting [3]), the “Test B disease control rating” value is 0%. The “Test C disease control rating” value in the assay on Pyricularia oryzae (setting [3]) amounted to 94%. The “Test D disease control rating” value in the assay with Phytophthora infestans (setting [3]) amounted to 35%. Also, the “Test E disease control rating” value in the assay with Botrytis cinerea (setting [3]) was determined as 6%.

With `CCC1(C(=O)NC(C)C=Cc2ccccc2)C(C)C1(Cl)Cl` (mixture of isomers) [compound 263], in assay [1], the “Test A disease control rating (100 = 100% disease control, 0 = no disease control)” value was 86%. The “Test B disease control rating (100 = 100% disease control, 0 = no disease control)” value in the assay with Puccinia recondita was 0%. Moreover, the “Test C disease control rating (100 = 100% disease control, 0 = no disease control)” value with Pyricularia oryzae was 86%. Besides, the “Test D disease control rating (100 = 100% disease control, 0 = no disease control)” value with Phytophthora infestans is on record as 33%. Moreover, the “Test E disease control rating (100 = 100% disease control, 0 = no disease control)” value with Botrytis cinerea is 0%.

(Values after patent publication US6642392B1 (priority 1997, dated 2003).)
